According to US20240018132A1, “5-HYDROXY-1,4-NAPHTHALENEDIONE FOR USE IN THE TREATMENT OF CANCER” (GODAVARI BIOREFINERIES LIMITED, priority 2020, published 2024):

What was measured:
Assay type in all cases: cell-based
[1] = system: PC3; assay: Wound Healing Assay (WHA), prostate cancer cell line; conditions: IC10 conc. of compound
Procedure: (§1) Wound Healing Assay (WHA) determines the ability of cancer stem cells to heal the wound formed in a confluent monolayer.
(§2) Procedure: 0.35×10^6 cells were plated in each well of 6 Tissue Culture well plates. The plate was incubated for 48 hrs at 37° C., 5% CO2. […] IC10 conc. of the respective compound was added into each well. The plates were incubated at 37° C., 5% CO2 and the width of scratch was measured at various time intervals such as 6, 24 and 48 hours. Average of 3 distances were taken for each time point using IS camera Measure. A plot of average width of scratch in micrometer was plotted against the time interval after treatment.

[2] = system: MDAMB231; assay: Wound Healing Assay (WHA), breast cancer cell line; conditions: IC10 conc. of compound
Procedure: as §1, §2

[3] = system: PC3; assay: In vitro antiproliferative assay (MTT assay), prostate cancer cell line; conditions: Homo sapiens, PC-3, 48 h, MTT assay, prostate cancer PC3, 48 hrs drug incubation
Outline: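 Cells plated, grown 24 h at 37 °C/5% CO2, then exposed to compounds (from 0.1 M DMSO stock) for 48 h. Viability read by MTT (0.5 mg/ml, 4 h) with DMSO solubilization; log % viability plotted against log concentration.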

[4] = system: PC3; assay: Soft agar colony-formation assay, prostate cancer; conditions: for anticancer activity in comparison with cisplatin, soft agar, prostate cancer cell line: FIG. 52, PC3; for IC50: Homo sapiens, PC-3, 168 h, Soft Agar Assay, 1 week, Alamar Blue
Outline: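 Cells were plated in soft agar with drug over an agar base layer and grown 1 week at 37 °C/5% CO2, with feeding on day 3. Colonies were quantified with Alamar Blue (24 h, 37 °C) by absorbance at 630 nm. Log % viability was plotted against log drug concentration.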

Row | Compound | % inhibition of Wound Healing for Prostate Cancer Cell line (PC3) after 48 hrs [1] [%] | % inhibition of Wound Healing for Breast Cancer Cell line (MDAMB231) after 48 hrs [2] [%] | IC50 [3] [µM] | anticancer activity in comparison with cisplatin, soft agar, prostate cancer cell line [4] | IC50 [4] [µM]
1 | O=C1C(NC2CCCCC2)=CC(=O)c2c(OCCN3CCOCC3)cccc21 [Formula 52] | 34.7 | 37.42 | 4.32 | higher anticancer activity in comparison with cisplatin | 3.27
2 | O=C1C(c2ccc3c(c2)OCO3)=CC(=O)c2c(OCCCCN3CCOCC3)cccc21 [Formula 2, 5-(4-morpholinobutoxy)-2-(benzo[d][1,3]dioxol-6-yl)naphthalene-1,4-dione] | 45.25 | 53.69 | 0.344 | higher anticancer activity in comparison with cisplatin | 2.65
3 | COc1ccc(NC2=CC(=O)c3c(OCCN4CCOCC4)cccc3C2=O)cc1OC [Formula 40, 5-(2-morpholinoethoxy)-2-(3,4-dimethoxyphenylamino) naphthalene-1,4-dione] | 48.56 | 45.84 | 1.68 | higher anticancer activity in comparison with cisplatin | 0.422
